These results are taken from US6180666A, “Use of gallic acid esters to increase bioavailability of orally administered pharmaceutical compounds” (priority 1999, dated 2001).

For data set [1], the target named is T1, CYP3A (Homo sapiens, UniProt P08684). Nature of the data set: Inhibition of CYP3A-mediated nifedipine metabolism in human liver microsomes by gallic acid esters (Example 1). The following applies: for activity at 10 µM / activity at 25 µM / activity at 50 µM / activity at 100 µM / activity at 500 µM: read-out: Relative Nifedipine Oxidation Rate (± S.D.). As for the experimental part: The known CYP3A substrate nifedipine (Gonzalez, F. J., et al., Human P45OPCN1: sequence, chromosome localization, and direct evidence through cDNA expression that P45OPCN1 is nifedipine oxidase, DNA, 2:79-86 (1988)) was used as a test substrate for evaluating the potential of various gallic acid esters to inhibit CYP3A metabolism in a human liver microsome study.
T1 sequence (P08684 2-503 limits assumed): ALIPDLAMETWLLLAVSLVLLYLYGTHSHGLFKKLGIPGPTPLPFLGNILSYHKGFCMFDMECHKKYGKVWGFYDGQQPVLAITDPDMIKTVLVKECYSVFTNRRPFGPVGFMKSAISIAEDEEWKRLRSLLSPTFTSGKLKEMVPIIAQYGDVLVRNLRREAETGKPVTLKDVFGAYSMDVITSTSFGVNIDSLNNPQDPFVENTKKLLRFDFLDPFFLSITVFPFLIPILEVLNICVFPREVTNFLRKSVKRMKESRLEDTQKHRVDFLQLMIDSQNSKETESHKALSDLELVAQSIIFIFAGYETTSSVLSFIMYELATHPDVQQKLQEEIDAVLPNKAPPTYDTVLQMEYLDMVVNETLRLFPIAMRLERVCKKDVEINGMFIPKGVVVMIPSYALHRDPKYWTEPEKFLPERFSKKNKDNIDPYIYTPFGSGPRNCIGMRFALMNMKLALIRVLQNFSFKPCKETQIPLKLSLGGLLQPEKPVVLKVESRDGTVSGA
(§1) Microsomal pellets were prepared from the homogenate using standard differential centrifugation procedures (Guengerich, Analysis and characterization of enzymes in Principles and Methods of Toxicology, A. W. Hayes (ed.), Raven Press, New York. pp. 777-814 (1989)) and were stored at -80° C. in Tris-acetate buffer, pH 7.4, containing 20% w/v glycerol. Microsomes were diluted in 100 mM potassium phosphate buffer, pH 7.4, for use in metabolic incubations. Microsomal protein and CYP content of the human liver microsomes were determined using methods of Bradford (Bradford, M. M. A rapid and sensitive method for the quantitation of microgram quantities of protein utilizing the principles of protein-dye binding. Anal. Biochem. 72:248-254 (1976)) and Omura and Sato (Omura, T. et. al. The carbon monoxide-binding pigment of liver microsomes II. Solubilization, purification and properties. J. Biol. Chem. 239:2370-2378 (1964)), respectively.
In the experiments, 100 μM nifedipine and either 5 μl of a solution of one of the gallic acid esters (at a concentration indicated in Table 1) or 5 μl of solvent alone (control) were preincubated along with 0.1 mg/ml of the human liver microsomal proteins and 1 mM diethylenetriarninepentaacetic acid (DETAPAC) in 100 mM phosphate buffer, pH 7.4, for 5 minutes at 37°0 C. Metabolic reactions were started by addition of reduced β-nicotinamide adenine dinucleotide phosphate (NADPH) to give a final concentration of 1 mM and a final volume of 0.5 ml. Metabolic reactions were stopped after 3 minutes by vortex mixing with 0.2 ml of an extraction solvent of (94:6) acetonitrile:glacial acetic acid. Protein was precipitated by centrifugation (3000 rpm×10 minutes) and supernatants were analyzed for nifedipine and its oxidation product 2,6-dimethyl-4-(2-nitrophenyl)-3,5-pyridinedicarboxylic acid dimethyl ester by High Performance Liquid Chromatography (HPLC).
All experiments were conducted in triplicate and compared to incubations carried out without NADPH or without substrate. The data are the mean±standard deviation of three measurements.
^a Substrate and inhibitor were dissolved in acetonitrile except for
lauryl gallate which required methanol as vehicle.
^b Inhibition constant Ki determinations utilized 10, 20, 50 and
100 μM nifedipine substrate concentrations and experiments were run in
duplicate. Ki values were determined by regression analysis of rate
data using SigmaPlot V4.OS software (SPSS Inc., San Rafael, California).

The conditions of data set [2]: Joint FAO/WHO Expert Committee, cited from earlier work; for temporary acceptable daily intake: 1/200 of no observed effect level, 90 day feeding studies in rats.
Data set [3] relates to CYP3A. Put plainly: Inhibition of CYP3A-mediated metabolism of amiodarone, buspirone and nifedipine in human liver microsomes (Example 2). As for the experimental part:
as §1
(§2) The ability of propyl gallate at various concentrations to inhibit metabolism for three representative drugs through inhibition of the cytochrome P450 mechanism was tested. Human liver microsomes were prepared and each of three drugs, amiodarone, buspirone, or nifedipine, were incubated with the microsomes in the presence of propyl gallate or a known inhibitor of CYP3A metabolism. Metabolism in the presence of propyl gallate or known CYP3A inhibitor was compared to a control treated only with the solvent in which the inhibitor was dissolved.
(§3) Clin. Pharmacol. Ther. 64: 655-60 (1998)) by human liver microsomes was tested. The microsomes were prepared as in Example 1.
(§4) The amiodarone was present in a concentration of 100 μM, the buspirone was in a concentration of 25 μM, and the nifedipine was present in a concentration of 25 μM. The propyl gallate was tested with each of these drugs at concentrations of 25, 50, and 100 μM.
(§5) The drug and optionally the inhibitor were preincubated with the microsomes at 1 nmol CYP/ml and 1 mM DETAPAC in 100 mM phosphate buffer, pH 7.4 for 5 minutes at 37° C. After the preincubation, metabolic reactions were started by the addition of 1 mM NADPH. Samples were taken at 1, 2, and 3 minutes after the start of the reaction and analyzed by HPLC. Disappearance of substrate and/or formation of metabolite were quantitated by comparison to standard curves.
(§6) The metabolism rates (nmol/ml/min) are the mean±standard deviation of three measurements.
(§7) ^a Formation rate of N-desethylamiodarone metabolite (nmol/ml/min)
(§8) ^b Buspirone disappearance (nmol/ml/min)
(§9) ^c Formation of nifedipine oxidation product
(§10) 2,6-dimethyl-4-(2-nitrophenyl)-3,5-pyridinedicarboxylic acid, dimethyl

The target in data set [4] is T1, CYP3A. The data set is described as above. As for the experimental part: as §1, §2, §3, §4, §5, §6, §7, §8, §9, §10
Setting [5] is: inhibitor 100 μM, amiodarone 100 μM.
The mark [6] stands for this setting: read-out: Buspirone metabolism rate, % control.
[7] abbreviates: read-out: Nifedipine metabolism rate, % control.

Like-named read-outs stand apart in the source and are kept apart here.

As to `CCCCCCCCOC(=O)c1cc(O)c(O)c(O)c1` [Octyl gallate, octyl gallate], at CYP3A [1], the “Inhibition of CYP3A-mediated metabolism (in words)” value was “especially good inhibitor of the metabolism at relatively low concentrations”, the inhibitory constant (Ki) is 5.2 ± 0.2 µM, the activity at 10 µM worked out at 44% and the activity at 25 µM was determined as 17.5%. At CYP3A [1], the activity at 50 µM is 4.9% and the activity at 100 µM was found to be 1.1%. Also, the “temporary acceptable daily intake” value in data set [2] is on record as 0-0.1 mg/kg body weight.

For the compound `COC(=O)c1cc(O)c(O)c(O)c1` [Methyl gallate, methyl gallate], on CYP3A [1], the activity at 100 µM turned out to be 53% and the activity at 500 µM is 16%.

Turning to `CCCCCCCCCCCCOC(=O)c1cc(O)c(O)c(O)c1` [Lauryl gallate, lauryl gallate], at CYP3A [1], the activity at 10 µM amounted to 61%, the activity at 25 µM stood at 31%, the activity at 50 µM turned out to be 12.6% and the activity at 100 µM amounted to 6.4%. In data set [2], the “temporary acceptable daily intake” value is 0-0.05 mg/kg body weight.

As for `CC[C@H]1OC(=O)[C@H](C)[C@@H](O[C@H]2C[C@@](C)(OC)[C@@H](O)[C@H](C)O2)[C@H](C)[C@@H](O[C@@H]2O[C@H](C)C[C@H](N(C)C)[C@H]2O)[C@](C)(O)C[C@@H](C)C(=O)[C@H](C)[C@@H](O)[C@]1(C)O` [Erythromycin, reference compound], the “Mean ± SD metabolism rate, amiodarone (formation rate of N-desethylamiodarone)” value (“Mean ± SD metabolism rate, amiodarone” for short) with CYP3A [3] (setting [5]) was 0.84 ± 0.07 nmol/mL/min.

For the compound `CCCOC(=O)c1cc(O)c(O)c(O)c1` [Propyl gallate, 3,4,5-trihydroxybenzoic acid, n-propyl ester], at CYP3A [1], the affinity corresponds to a Ki of 64 ± 2 µM, the activity at 50 µM was determined as 59%, the activity at 100 µM stood at 34% and the activity at 500 µM is 6.1%. Further, in the data set with CYP3A [3], the “Inhibition of CYP3A-mediated metabolism (in words)” value is given as “effective inhibitor of CYP3A-mediated metabolism”; the “Inhibition of drug metabolism compared with known CYP3A inhibitors (in words)” value is “better at inhibiting drug metabolism than the established CYP3A inhibitors diltiazem, erythromycin, and verapamil”. Besides, the “Mean ± SD metabolism rate, amiodarone” value in the data set on CYP3A [3] (inhibitor 25 μM, amiodarone 100 μM) came out at 0.94 ± 0.02 nmol/mL/min. Also, in the data set with CYP3A [3] (inhibitor 50 μM, amiodarone 100 μM), the “Mean ± SD metabolism rate, amiodarone” value worked out at 0.55 ± 0.02 nmol/mL/min. For the same compound, in the data set on CYP3A [3] (setting [5]), the “Mean ± SD metabolism rate, amiodarone” value turned out to be 0.32 ± 0.03 nmol/mL/min. In addition, in the data set on CYP3A [3] (microsomes, 25 µM), the “Amiodarone metabolism rate, % control” value is given as 49 % control. Further, the “Amiodarone metabolism rate, % control” value with CYP3A [3] (microsomes, 50 µM) is on record as 28 % control. For the same compound, the “Amiodarone metabolism rate, % control” value in the data set with CYP3A [3] (microsomes, 100 µM) was 17 % control. Moreover, on CYP3A [4] (setting [6]), the remaining activity at 25 µM stood at 65%, the remaining activity at 50 µM came out at 42% and the remaining activity at 100 µM amounted to 29%. Further, at CYP3A [4] (setting [7]), the remaining activity at 25 µM turned out to be 82%, the remaining activity at 50 µM amounted to 54% and the remaining activity at 100 µM was determined as 33%. In addition, in data set [2] (1/100 of no observed effect level, 90 day feeding study in rats), the acceptable daily intake is 0 to 1.4 mg/kg/day.

For the compound `CC(=O)N1CCN(c2ccc(OCC3COC(Cn4ccnc4)(c4ccc(Cl)cc4Cl)O3)cc2)CC1` (centres unmarked) [Ketoconazole, reference compound], in the data set with CYP3A [3] (inhibitor 1 μM, amiodarone 100 μM), the “Amiodarone metabolism rate, % control” value stood at 4 % control.
